Numbers after ± are expanded uncertainties. Each block holds one compound with its values, some of them ahead of it.
Experiments:
[1] = wn = mass fraction of the nth substance listed; details: Liquid
[2] = xn = mol fraction of the nth substance listed; details: 10000 kPa, Liquid

viscosity ([1]; 303.15 K, 10000 kPa, w1 = 0.03): 0.84 ± 0.05 mPa·s
viscosity ([1]; 303.15 K, 20000 kPa, w1 = 0.03): 0.83 ± 0.05 mPa·s
viscosity ([1]; 313.15 K, 10000 kPa, w1 = 0.03): 0.68 ± 0.04 mPa·s
viscosity ([1]; 313.15 K, 20000 kPa, w1 = 0.03): 0.69 ± 0.04 mPa·s
viscosity ([1]; 323.15 K, 10000 kPa, w1 = 0.03): 0.59 ± 0.04 mPa·s
viscosity ([1]; 323.15 K, 20000 kPa, w1 = 0.03): 0.59 ± 0.04 mPa·s
viscosity ([1]; 333.15 K, 10000 kPa, w1 = 0.03): 0.49 ± 0.04 mPa·s
viscosity ([1]; 333.15 K, 20000 kPa, w1 = 0.03): 0.5 ± 0.04 mPa·s
Structure (SMILES): [Cl-].[Na+] [sodium chloride] + O

viscosity ([2]; 303.15 K, x1 = 0.0073): 0.81 ± 0.05 mPa·s
viscosity ([2]; 303.15 K, x1 = 0.0148): 0.86 ± 0.05 mPa·s
viscosity ([2]; 303.15 K, x1 = 0.0238): 0.89 ± 0.06 mPa·s
viscosity ([2]; 313.15 K, x1 = 0.0107): 0.68 ± 0.04 mPa·s
viscosity ([2]; 313.15 K, x1 = 0.0207): 0.7 ± 0.06 mPa·s
Structure (SMILES): O=C=O [carbon dioxide] + O

viscosity ([1]; 303.15 K, 10000 kPa, w2 = 0): 0.8 ± 0.05 mPa·s
viscosity ([1]; 313.15 K, 10000 kPa, w2 = 0): 0.66 ± 0.04 mPa·s
viscosity ([1]; 323.15 K, 10000 kPa, w2 = 0): 0.56 ± 0.04 mPa·s
viscosity ([1]; 333.15 K, 10000 kPa, w2 = 0): 0.47 ± 0.04 mPa·s
Structure (SMILES): O [water] + [Cl-].[Na+]

— the NIST ThermoML archive (doi:10.1021/je049940f)
